Source: patent US7528259B2, “Derivatives of 4,5,6,7-tetrabromobenzimidazole and method of their preparation” (Selvita SP. Z O. O., priority 2004, dated 2009)
Like-named read-outs stand apart in the source and are kept apart here. One block for each compound: values may come before it.

What was measured:
CK2 = target: T1, CK2 (Rattus norvegicus, UniProt P19139); test: CK2 phosphorylation assay, kinetic determination of inhibition constant; format: biochemical
T1 construct: Native CK1 (nCK1) and CK2 (nCK2) were purified from rat liver; from tissue; host or cells: rat liver
T1 sequence (P19139 whole entry): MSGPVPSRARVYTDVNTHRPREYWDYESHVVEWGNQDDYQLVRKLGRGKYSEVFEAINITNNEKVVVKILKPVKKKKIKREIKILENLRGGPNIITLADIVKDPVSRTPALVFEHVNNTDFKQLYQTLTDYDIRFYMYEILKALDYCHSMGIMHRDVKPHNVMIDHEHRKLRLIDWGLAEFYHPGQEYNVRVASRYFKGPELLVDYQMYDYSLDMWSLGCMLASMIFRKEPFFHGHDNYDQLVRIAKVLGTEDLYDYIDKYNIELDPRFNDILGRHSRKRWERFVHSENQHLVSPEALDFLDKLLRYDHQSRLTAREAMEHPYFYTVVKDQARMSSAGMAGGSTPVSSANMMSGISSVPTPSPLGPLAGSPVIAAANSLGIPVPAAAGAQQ
T1 sequence (P67874 2-215 partner limits assumed): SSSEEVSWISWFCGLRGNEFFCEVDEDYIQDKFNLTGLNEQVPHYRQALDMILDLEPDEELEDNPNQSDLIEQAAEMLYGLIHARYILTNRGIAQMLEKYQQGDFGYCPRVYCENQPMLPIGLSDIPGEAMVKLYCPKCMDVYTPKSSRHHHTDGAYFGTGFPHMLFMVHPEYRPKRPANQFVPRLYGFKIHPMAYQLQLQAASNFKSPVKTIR

CK1 (casein kinase 1) = test: Enzymatic activity of kinases, residual activity with inhibitor; format: biochemical, rat; details: inhibitor at 10 μM; percentage activity without an inhibitor
Method: (§1) Tests of enzymatic activity of kinases were carried out using methodology described by Sarno et al. 2003 and are summarized in Table 1. […] Native CK1 (nCK1) and CK2 (nCK2) were purified from rat liver (Meggio et al., 1981); Golgi CK (G-CK), purified from rat lactating mammary gland, was provided by Dr. A. M. Brunati (Padova, Italy). Protein tyrosine kinases Lyn, c-Fgr, Syk (also termed TPK-IIB) were purified from rat spleen as previously referenced (Sarno et al., 2003). Human recombinant α and β subunits of CK2 were expressed in E. coli and the holoenzyme was reconstituted and purified as previously described (Sarno et al., 1996). The […] and […] CK2 mutants were obtained as described previously (Sarno et al., 2003). […] double mutant was obtained with the “QuikChange-SiteDirected Mutagenesis” kit (Stratagene), using human […] cDNA α inserted in pT7-7 vector as template and two synthetic oligonucleotide primers, [NT] and [NT], each complementary to opposite strands of template. Expression and purification of the mutant was performed as previously described (Sarno et al., 2003).

[1] = test system: G-CK (casein kinase from Golgi apparatus); test: as above; format: biochemical, rat; details: inhibitor at 10 μM; percentage activity without an inhibitor
Method: as §1

DYRK1a = DYRK1a (Homo sapiens, UniProt Q13627); test: as above; format: biochemical; details: inhibitor at 10 μM; percentage activity without an inhibitor
Method: Tests of enzymatic activity of kinases were carried out using methodology described by Sarno et al. 2003 and are summarized in Table 1. The residual activity was determined by incubation in the presence of inhibitor at a concentration of 10 μM and expressed as percentage activity without an inhibitor.
Saccharomyces cerevisiae piD261 was provided by Dr. S. Facchin (Padova, Italy). The source of all the other protein kinases used for specificity assays is either described or referenced by Davies et al. (2000).

[2] = test system: human leukemia Jurkat T cells; test: Cytotoxic effect, MTT viability assay; format: cell-based; details: 24 hours
Method: Leukemia Jurkat cells were incubated for 24 hours in a medium of increasing concentration of 4,5,6,7-tetrabromobenzimidazole (TBB) or 2-dimethylamino-4,5,6,7-tetrabromobenzimidazole (K25). The cytotoxic effect was assessed by means of staining with a use of MTT, (3-(4,5-dimethylthiazol-2-yl)-3,5-diphenyltriazolium bromide, reagent. Control cells were incubated in a medium with added solvent (DMSO, 05% v/v). The results were calculated as mean values of three experiments. The resulting cytotoxic effect of 4,5,6,7-tetrabromo-2-dimethylaminobenzimidazole on human leukemia Jurkat T cells is presented in FIG. 1. […].
The human leukemia Jurkat T-cell line was maintained in RPMI-1640, supplemented with 10% (v/v) fetal calf serum, 2 mM L-glutamine, 100 units/ml penicillin and 100 ug/ml streptomycin. For the treatment, cells were suspended at a density of 10^6 cells/ml in a medium containing 1% (v/v) fetal calf serum, then incubated at 37° C., in the presence of the compounds at the indicated concentrations. Control cells were treated with equal amounts of solvent inhibitor was solved. […]
(§2) Cell viability was assessed by means of 3-(4,5-dimethylthiazol-2-yl)-3,5-diphenyltriazolium bromide (MTT) reagent, while caspase activation was followed by Western blot monitoring of PARP and HS1 protein degradation, as previously described (Ruzzene et al., 2002).

[3] = test system: human leukemia Jurkat cells; test: Caspase activation by Western blot of PARP and HS1 degradation; format: cell-based; details: 14 hours, 5 or 10 uM, FIG. 2
Method: Leukemia Jurkat cells were incubated for 14 hours without the addition of 2-dimethylamino-4,5,6,7-tetrabromobenzimidazole (C), and in a medium including 5 or 10 uM of 2-dimethylamino-4,5,6,7-tetrabromobenzimidazole and 50 ng/mL of antiFas (aF), a control substance to follow the apoptosis process.
The human leukemia Jurkat T-cell line was maintained in RPMI-1640, supplemented with 10% (v/v) fetal calf serum, 2 mM L-glutamine, 100 units/ml penicillin and 100 ug/ml streptomycin. For the treatment, cells were suspended at a density of 10^6 cells/ml in a medium containing 1% (v/v) fetal calf serum, then incubated at 37° C., in the presence of the compounds at the indicated concentrations. Control cells were treated with equal amounts of solvent inhibitor was solved. At the end of incubations, cells were lysed by the addition of hypoosmotic buffer, as previously described (Sarno et al., 2003).
as §2

isolated mitochondria = test: Depolarization of isolated mitochondria
[4] = CK2, competitive with respect of ATP, read-out: Inhibition constant Ki

Ki (CK2): 160 nM
melting point: > 250 °C (dec.)
SMILES: CN(C)CCNc1nc2c(Br)c(Br)c(Br)c(Br)c2[nH]1 [2-(2-Dimethylaminoethylamino)-4,5,6,7-tetrabromo-1H-benzimidazole]

Ki (CK2; [4]): 140 nM
melting point: 258 to 260 °C
SMILES: CC(O)CNc1nc2c(Br)c(Br)c(Br)c(Br)c2[nH]1 (stereo not drawn) [2-(2-hydroxypropylamino)-4,5,6,7-tetrabromo-1H-benzimidazole]

Ki (CK2; [4]): 130 nM
melting point: 216 to 218 °C
SMILES: OCCNc1nc2c(Br)c(Br)c(Br)c(Br)c2[nH]1 [2-Ethanolamine-4,5,6,7-tetrabromo-1H-benzimidazole]

Ki (CK2; [4]): 60 nM
melting point: 288 to 290 °C (dec.)
SMILES: CC(C)Nc1nc2c(Br)c(Br)c(Br)c(Br)c2[nH]1 [2-Isopropylamine-4,5,6,7-tetrabromo-1H-benzimidazole]

Ki (CK2; [4]): 90 nM
melting point: 283 to 285 °C
SMILES: CNc1nc2c(Br)c(Br)c(Br)c(Br)c2[nH]1 [2-Methylamino-4,5,6,7-tetrabromo-1H-benzimidazole]

Ki (CK2; [4]): 90 nM
SMILES: Nc1nc2c(Br)c(Br)c(Br)c(Br)c2[nH]1 [2-amino-4,5,6,7-tetrabromobenzimidazole, reference compound]

SMILES: CN(C)c1nc2c(Br)c(Br)c(Br)c(Br)c2[nH]1 [Example K25, 2-Dimethylamino-4,5,6,7-tetrabromo-1H-benzimidazole]
Residual activity of CK1 (CK1 (casein kinase 1)): 87 percentage
Residual activity of G-CK [1]: 92 percentage
Residual activity of DYRK1a (DYRK1a): 2 percentage
Cytotoxic effect compared with TBB ([2]; FIG. 1): several times higher
Cytotoxic effect compared with TBB ([2]; FIG. 1, listed as 2-dimethylamino-4,5,6,7-tetrabromobenzimidazole): several times more active
Activation of caspase (degradation of HS1 and PARP) [3]: Activation of caspase
Depolarization of isolated mitochondria (isolated mitochondria): does not cause depolarization

Residual activity of CK1 (CK1 (casein kinase 1)): 91 percentage
Residual activity of G-CK [1]: 95 percentage
Residual activity of DYRK1a (DYRK1a): 22 percentage
SMILES: Brc1c(Br)c(Br)c2[nH]nnc2c1Br [TBB, 4,5,6,7-tetrabromobenzotriazole, reference compound]
